Reference: US12037345B2, “Heterobicyclic compounds for inhibiting the activity of SHP2” (TAIHO PHARMACEUTICAL CO., LTD., priority 2018, dated 2024)
pIC50: −log10 of the molar value. Counter-ions that a name gives are not always drawn.

Experiments:
[1] = system: pERK (phospho-p44/42 MAPK Thr202/Tyr204) in HCC827 cells; assay: Cellular pERK Inhibition Assay, Method B (PathScan phospho-p44/42 MAPK sandwich ELISA); format: cell-based; conditions: Homo sapiens, Table 20, read-out: pERK (IC50, μM) Method B
Method: Cellular pERK Inhibition Assay
HCC827 cells (ATCC, Manassas, USA) were seeded into 96-well plates at a density of 1×10^5 cells/well in RPMI medium supplemented with 10% FBS and incubated 24h. Compounds were diluted first in DMSO and then into serum-free medium, before being added to cells in triplicate to give a final concentration of 0.1% DMSO. Plates were incubated at 37° C. for the indicated time in a humidified atmosphere of 5% CO2 in air.
Following compound treatment, medium was removed and cells were lysed by adding 50 μL of lysis buffer (Cell Signalling Technology, Beverly, USA) to each well. Plates were then incubated at room temperature for 25 minutes with shaking. pERK levels were measured in lysates using the PathScan(Registered Trademark) phospho-p44/42 MAPK (Thr202/Tyr204) sandwich ELISA (Cell Signalling Technology, Beverly, USA) as per kit instructions. Briefly, 50 μL of cell lysate was added to 50 μL of ELISA sample diluent in a 96-well ELISA plate and incubated overnight at 4° C. Following washing, 100 μL of detection antibody was added per well and the plates incubated for 1 hour at 37° C. Plates were washed again and incubated at 37° C. for 30 minutes with 100 μl of HRP-linked secondary antibody per well. After final washing, 100 μL per well of TMB substrate was added and plates incubated at 37° C. to develop colour. Colour development was stopped by the addition of 100 μL per well of stop solution. Plates were read at 450 nm on a SpectraMax Gemini reader (Molecular Devices, Uckfield, UK).
The average signal from blank wells (no cells added) was subtracted from the signals from each sample well. Levels of pERK were then expressed as “percent of control”, using DMSO treated samples as control. Dose response curves were generated using GraphPad Prism Version 6 (GraphPad Software, La Jolla, USA) and fitted using the four parameter logistic curve fit.

[2] = biological target: SHP2 (Homo sapiens (Human), UniProt Q06124); assay: SHP2 Biochemical Assay (DiFMUP conversion, pIRS1-activated); conditions: Table 20
Chain of SHP2 (Q06124 whole entry): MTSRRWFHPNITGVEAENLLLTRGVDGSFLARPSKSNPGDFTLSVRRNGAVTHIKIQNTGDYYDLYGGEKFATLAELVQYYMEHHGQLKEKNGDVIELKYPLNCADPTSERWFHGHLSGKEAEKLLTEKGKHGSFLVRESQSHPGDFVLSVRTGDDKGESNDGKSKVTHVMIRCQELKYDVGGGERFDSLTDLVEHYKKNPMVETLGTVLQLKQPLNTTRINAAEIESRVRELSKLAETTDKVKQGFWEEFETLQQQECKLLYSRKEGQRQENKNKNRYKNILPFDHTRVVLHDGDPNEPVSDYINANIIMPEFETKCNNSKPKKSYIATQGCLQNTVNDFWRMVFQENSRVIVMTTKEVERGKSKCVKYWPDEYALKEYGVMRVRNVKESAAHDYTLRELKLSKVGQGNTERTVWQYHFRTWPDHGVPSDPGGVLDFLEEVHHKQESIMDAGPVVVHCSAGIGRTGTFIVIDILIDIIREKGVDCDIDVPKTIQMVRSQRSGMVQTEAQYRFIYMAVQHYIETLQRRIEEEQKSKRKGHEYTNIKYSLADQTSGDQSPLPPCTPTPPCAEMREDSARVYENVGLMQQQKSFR
Summary of the method: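 Human SHP2 (10 pM) pre-incubated 30 min with compound and […] pIRS1 activating peptide, then 50 μM DiFMUP added; buffer 25 mM Bis-Tris propane pH 7.0, 150 mM NaCl, 5% DMSO. Fluorescence rate (ex 360/em 450 nm) over 30 min; IC50 by four-parameter fit, averaged across experiments.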

SMILES | IC50 [1] [µM] | pIC50 [2]
Cn1c(N2CC[C@H](N)[C@H](F)C2)nc2[nH]cc(-c3ccc4ncsc4c3Cl)c2c1=O [Example 187, 2-[(3R,4S)-4-amino-3-fluoropiperidin-1-yl]-5-(7-chloro-1,3-benzothiazol-6-yl)-3-methyl-3H,4H,7H-pyrrolo[2,3-d]pyrimidin-4-one hydrochloride] | 0.8 | 7.29
Cn1cc2c(Cl)c(-c3c[nH]c4nc(N5[C@H]6CCNC[C@@H]5CC6)n(C)c(=O)c34)ccc2n1 [Example 188, 5-(4-chloro-2-methyl-2H-indazol-5-yl)-2-[(1S,6R)-3,9-diazabicyclo[4.2.1]nonan-9-yl]-3-methyl-3H,4H,7H-pyrrolo[2,3-d]pyrimidin-4-one hydrochloride] | 0.56 | 7.39
Cn1cc2c(Cl)c(-c3c[nH]c4nc(N5[C@@H]6CCNC[C@H]5CC6)n(C)c(=O)c34)ccc2n1 [Example 189, 5-(4-chloro-2-methyl-2H-indazol-5-yl)-2-[(1R,6S)-3,9-diazabicyclo[4.2.1]nonan-9-yl]-3-methyl-3H,4H,7H-pyrrolo[2,3-d]pyrimidin-4-one hydrochloride] | 0.23 | 7.72
C[C@@H]1OCC2(CCN(c3nc4[nH]cc(-c5cc(F)c6nn(C)cc6c5Cl)c4c(=O)n3C)CC2)[C@@H]1N [Example 194, 2-[(3S,4S)-4-amino-3-methyl-2-oxa-8-azaspiro[4.5]decan-8-yl]-5-(4-chloro-7-fluoro-2-methyl-2H-indazol-5-yl)-3-methyl-3H,4H,7H-pyrrolo[2,3-d]pyrimidin-4-one hydrochloride] | 0.043 | 7.80
Cn1cc2c(Cl)c(-c3c[nH]c4nc(N5[C@H]6CC[C@@H]5[C@](C)(N)C6)n(C)c(=O)c34)ccc2n1 [Example 195, 2-[(endo)-2-amino-2-methyl-7-azabicyclo[2.2.1]heptan-7-yl]-5-(4-chloro-2-methyl-2H-indazol-5-yl)-3-methyl-3H,4H,7H-pyrrolo[2,3-d]pyrimidin-4-one hydrochloride] | 0.045 | 7.80
CCn1cc2c(Cl)c(-c3c[nH]c4nc(N5[C@H]6CC[C@@H]5[C@@H](F)[C@@H](N)C6)n(C)c(=O)c34)ccc2n1 [Example 197, 2-[(1R,2S,3S,5S)-3-amino-2-fluoro-8-azabicyclo[3.2.1]octan-8-yl]-5-(4-chloro-2-ethyl-2H-indazol-5-yl)-3-methyl-3H,4H,7H-pyrrolo[2,3-d]pyrimidin-4-one hydrochloride] | 0.032 | 7.92
CN(C)c1ccc2ccc(-c3c[nH]c4nc(N5[C@H]6CC[C@@H]5[C@H](N)C6)n(C)c(=O)c34)c(Cl)c2n1 [Example 198, 2-[(1R,2R,4S)-2-amino-7-azabicyclo[2.2.1]heptan-7-yl]-5-[8-chloro-2-(dimethylamino)quinolin-7-yl]-3-methyl-3H,4H,7H-pyrrolo[2,3-d]pyrimidin-4-one hydrochloride] | 0.066 | 7.89
CNc1ccc2ccc(-c3c[nH]c4nc(N5[C@H]6CC[C@@H]5[C@H](N)C6)n(C)c(=O)c34)c(Cl)c2n1 [Example 199, 2-[(1R,2R,4S)-2-amino-7-azabicyclo[2.2.1]heptan-7-yl]-5-[8-chloro-2-(methylamino)quinolin-7-yl]-3-methyl-3H,4H,7H-pyrrolo[2,3-d]pyrimidin-4-one hydrochloride] | 0.11 | 7.85
